Conditions in all cases: incubation time: 72 h
For test [1], the system named is BT-474. The experiment in a line: normalised viability (% of control), CellTiter-Blue; higher = more viable cells (about 100 = DMSO control). As to the method: (§1)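 DSRT, CellTiter-Blue viability, 72 h incubation. Signal is normalised to DMSO and benzethonium chloride controls. Value is the normalised response at dose 3.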
In general terms: The colour change of resazurin is a common sign of viable cells or microbes.

In test [2] the test system is BT-549. The description is as above. As to the method:
as §1

Test [3] concerns CAL-120. The description is as above. The protocol: as §1
In test [4] the test system is CAL-148. Described as above. As to the method:
as §1

For test [5], the system named is CAL-51. The test is described as above. The protocol: as §1
Test [6] concerns CAL-85-1. The description is as above. The protocol: as §1
In test [7] the test system is DU-4475. The description is as above. The protocol: as §1
Test [8] has as its system HCC1143. Described as above. As to the method: as §1
The test system of test [9] is HCC1599. Described as above. The protocol:
as §1

For test [10], the system named is HCC1937. The test is described as above. The protocol:
as §1

Test [11] deals with HDQ-P1. Described as above. The protocol:
as §1

For test [12], the system named is Hs578T. The description is as above. As to the method:
as §1

Test [13] concerns MDA-MB-231. The description is as above. The protocol:
as §1

In test [14] the test system is MDA-MB-436. The description is as above. As to the method: as §1
Test [15] has as its system MDA-MB-453. The test is described as above. The protocol: as §1
The test system of test [16] is MDA-MB-468. The description is as above. As to the method: as §1
Test [17] relates to MFM-223. The test is described as above. As to the method:
as §1

For test [18], the system named is SK-BR-3. The description is as above. The protocol: as §1
Test [19] deals with CAL-120. Description: drug sensitivity score (DSS), CellTiter-Blue viability (DSS (AUC-based score)); higher = stronger viability inhibition; extreme values may be limits of the assay. The protocol:
(§2)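 DSRT with the CellTiter-Blue (resazurin reduction) viability readout, fluorescence 560/590 nm, 72 h incubation. Plates were normalised to DMSO and benzethonium chloride controls. DSS is computed from the area under the fitted dose-response curve (5 or 9 concentrations).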

The subject of test [20] is HCC1143. Described as above. As to the method:
as §2

Test [21] relates to HCC1599. Described as above. As to the method:
as §2

Test [22] concerns MDA-MB-436. The description is as above. The protocol: as §2
The subject of test [23] is MDA-MB-453. The description is as above. The protocol: as §2
Test [24] concerns SK-BR-3. The test is described as above. The protocol:
as §2

Test [25] relates to DU-4475. Description: drug sensitivity score (DSS), CellTiter-Glo (DSS (AUC-based score)); higher = stronger drug effect (viability inhibition or cytotoxicity); extreme values may be limits of the assay. In a few lines:
(§3)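 Using 20 µl of cell suspension per well, breast cancer cell lines were seeded into 384-well plates pre-loaded with compound at 5 concentrations in 10-fold steps across a compound-specific 10,000-fold range. Incubation lasted 72 h, after which CellTox Green fluorescence at 485/520 nm and then CellTiter-Glo luminescence, following 10 min at room temperature, were recorded. Each plate was normalised to 0.1 % DMSO and a positive kill control before the drug sensitivity score was derived from the area under the fitted dose-response curve.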

For test [26], the system named is HDQ-P1. The test is described as above. The essentials: as §3
Test [27] relates to MDA-MB-468. Described as above. The essentials:
as §3

Consider `CO[C@@H]1[C@H](N(C)C(=O)c2ccccc2)C[C@H]2O[C@]1(C)n1c3ccccc3c3c4c(c5c6ccccc6n2c5c31)C(=O)NC4` [Midostaurin], for which the normalised viability is 114% in test [1] (100 nM); 88.1% in [2] (100 nM); 107% in test [3] (100 nM); 107% in test [4] (10 nM); 91.9% in [5] (10 nM); 103% in test [6] (10 nM). The normalised viability in test [7] (10 nM) was determined as 103%; in [8] (100 nM), 134%; in test [9] (100 nM) it was 101%; in [10] (100 nM) it was 82.8%; in test [11] (10 nM), 85.3%; in test [12] (100 nM), 82.2%. In addition, the normalised viability in [13] (100 nM) worked out at 103%; in [14] (100 nM), 85.6%; in test [15] (10 nM) it was 85.7%; in [16] (100 nM) it was 112%; in test [17] (100 nM) it was 108%; in test [18] (100 nM) it was 102%. The drug sensitivity score in [19] amounted to 8.21; in test [20], 4.83; in [21], 3.48; in test [22], 8.07; in test [23] it was 7.82; in test [24], 6.46. Moreover, the drug sensitivity score is 9.68 in test [25], 6.88 in [26] and 14.6 in test [27].

For `CCNC(=O)CCC/C=C\C[C@@H]1[C@@H](/C=C/[C@@H](O)CCc2ccccc2)[C@H](O)C[C@@H]1O` [Bimatoprost], the normalised viability in test [1] (55 nM) is 126%; in test [2] (55 nM), 98.7%; in [3] (55 nM), 95.4%; in [4] (5.5 nM), 90.1%; in [5] (5.5 nM) it was 113%; in test [6] (5.5 nM), 104%. For the same molecule, the normalised viability in test [7] (5.5 nM) worked out at 120%; in test [8] (55 nM), 100%; in [9] (55 nM), 123%; in test [10] (55 nM), 102%; in test [11] (5.5 nM) it was 99.7%; in test [12] (55 nM), 80.7%. The normalised viability in test [13] (55 nM) turned out to be 96.8%; in test [14] (55 nM), 115%; in test [15] (5.5 nM) it was 105%; in [16] (55 nM), 106%; in [17] (55 nM), 108%; in [18] (55 nM), 82.1%. In addition, the drug sensitivity score in test [19], in test [20], in [21], in test [22], in test [23] and in test [24] was 0 each time. Besides, the drug sensitivity score in test [25], in [26] and in test [27] was 0 each time.

On to `C=CCN(/C=C1/C(=O)O[C@H](COC)[C@@]2(C)C1=C(O)C(=O)C1=C2[C@H](OC(C)=O)C[C@]2(C)C(=O)CC[C@@H]12)CC=C` [PX-866], for which the normalised viability in test [1] (100 nM) turned out to be 118%; in test [2] (100 nM), 98.4%; in [3] (100 nM), 108%; in [4] (10 nM), 100%; in test [5] (10 nM), 110%; in test [6] (10 nM) it was 104%. The normalised viability amounted to 97% in test [7] (10 nM); 99.2% in test [8] (100 nM); 112% in test [9] (100 nM); 99% in test [10] (100 nM); 109% in test [11] (10 nM); 81% in test [12] (100 nM). Besides, the normalised viability was 97.8% in [13] (100 nM); 102% in [14] (100 nM); 99.3% in [15] (10 nM); 90.2% in test [16] (100 nM); 95.2% in test [17] (100 nM); 78.1% in test [18] (100 nM). In addition, the drug sensitivity score in test [19] came out at 2.93; in test [20] it was 3.95; in [21], 0; in test [22], 0; in test [23], 0; in [24], 9.05.

For `CN[C@@H](C)C(=O)N[C@H]1CN(C(=O)CC(C)C)CC[C@H]2CC[C@@H](C(=O)NC(c3ccccc3)c3ccccc3)N2C1=O` [AT-406], the drug sensitivity score in test [25] was 0; in test [26] it was 2.18; in test [27] it was 4.99.

For `COc1c2occc2cc2ccc(=O)oc12` [Methoxsalen], the normalised viability worked out at 115% in test [1] (100 nM); 109% in [2] (100 nM); 106% in test [3] (100 nM); 99.5% in test [4] (10 nM); 105% in [5] (10 nM); 100% in [6] (10 nM). Also, the normalised viability stood at 95.5% in [7] (10 nM); 106% in [8] (100 nM); 104% in test [9] (100 nM); 104% in test [10] (100 nM); 99.3% in [11] (10 nM); 102% in test [12] (100 nM). In addition, the normalised viability in test [13] (100 nM) is 100%; in test [14] (100 nM) it was 103%; in test [15] (10 nM), 95.2%; in [16] (100 nM), 104%; in test [17] (100 nM), 92.9%; in test [18] (100 nM) it was 98.6%. The drug sensitivity score in [19] was 0; in test [20], 0; in test [21] it was 0; in test [22], 0; in test [23], 1.68; in test [24] it was 0.
